The source of these data is article PMC7707092, “Discovery and characterization of ORM‐11372, a novel inhibitor of the sodium‐calcium exchanger with positive inotropic activity” (British Journal of Pharmacology, 2020).

SMILES strings stand for the structures. Converted amounts (≈) assume the structure as drawn. Like-named read-outs stand apart in the source and are kept apart here. Some results are limits rather than exact numbers.

The test system of series [1] is human ventricular trabeculae. Conditions: 1 or 2 Hz; ORM‐11372 any tested concentration; dofetilide 0.1 μM (positive control).
The next series concerns the target T1, human NCX 1.1 (Homo sapiens, UniProt P32418).
T1 construct: expressed in transfected cells
The series can be described thus: Fluorescence screening assay for hNCX 1.1 inhibition (reverse mode, Sf9 cells). Format: cell-based. Conditions: Sf9 cells expressing human NCX1.1, reverse mode, fluorescence; n=3 assays. The procedure: Spodoptera frugiperda (Sf9; RRID:CVCL_0549) cells are widely used for the transient and stable expression of recombinant proteins. Here, Sf9 cells were stably transfected with human NCX 1.1 and maintained in spinner flasks with insect cell culture medium (TNM‐FH), supplemented with 10% FBS, antibiotic–antimycotic solution, and 50 μg·ml^−1 of blasticidin at 28°C in a non‐humidified, CO2‐free atmosphere. The Sf9 cell suspension was subcultured three times a week.
NCX reverse mode activity was stimulated via a 50% dilution of the extracellular Na^+ level using the internal pipettor of FLEXstation, a fluorescence imaging plate reader (Molecular Devices, USA), while simultaneously monitoring intracellular calcium levels. After dilution, the concentration of other ions remained the same, but Na^+ concentration was diluted to the half of original concentration of 172 to 86 mM. For Sf9 insect cells, normal extracellular Na^+ ion concentration is 172 mM. Typically, 50 μl of a solution containing 150,000–200,000 Sf9–NCX cells was loaded onto each well of a 96‐well plate. Cells were preincubated with the intracellular calcium dye Fluo‐4 and Fluo‐6, and the concentrations of the test compound (three replicates) were determined for about 1 h at room temperature before experimentation. The extracellular solution contained (in mM) 172 NaCl, 10 HEPES, 1 CaCl2, 1.2 MgCl2, 0.33 NaH2PO4, 5 glucose, and 5 probenecid. The pH was adjusted to 7.4 with NaOH. The extracellular Na^+ was diluted by the addition of a Na^+‐free extracellular solution (containing in mM: 147 N‐methyl‐D‐glucamine (NMDG), 10 HEPES, 1 CaCl2, 1.2 MgCl2, 0.33 NaH2PO4, and 5 glucose with the pH adjusted by HCl to 7.4)‐induced robust and reproducible elevation of intracellular calcium. The osmolarity of both solutions was adjusted to 340–355 mOsm in order to match the Sf9 cell media osmolarity. In each plate, the IC50 determination for each test compound was based on relative fluorescence changes in comparison with control and 5‐mM nickel acetate‐induced NCX inhibition.

For another series, the target named is hNCX1 (Homo sapiens, UniProt P32418). The series can be described thus: Confirmatory fluorescence assay for hNCX1 inhibition (forward mode, HEK293 cells, Charles River). The format is cell-based. The procedure: A confirmatory hNCX1 inhibition assay was performed in Charles River Laboratories, Cleveland. Briefly, HEK293 cells stably expressing hNCX1 were plated in 384‐well black wall, clear‐bottom microtitre plates and the next day loaded with Fluo‐8 for 30 min at 37°C. A plate was inserted into a FLIPR^TETRA, and a baseline was recorded during a preincubation period where test compound or vehicle in a Na^+‐free HB‐PS containing thapsigargin (6 μM) and […] (30 μM) was added to each well for ~5 min. Next, the NCX1 stimulation period was recorded in which Na^+‐containing HB‐PS (with 2‐μM thapsigargin and 10‐μM FCCP) was added. The experiments were performed at room temperature. The kinetic data generated were reduced for each well to maximum relative fluorescence units (RFU) minus minimum RFU after subtracting bias based on the first sample. The mean of the max–min RFU values during the stimulation period for the 3–4 replicates at each concentration on a plate was then plotted versus concentration and fitted to a Hill equation.

A short description of another series: Solubility. Format: physicochemical. Conditions: pH 7.4 phosphate buffer.
Series [2] relates to NCX. Further details: method as in ref 1 (a number printed in a supplementary file, which may have a reference list of its own: not looked up in the article's list). Conditions: Rat, cited from earlier work.
For series [3], the system named is NCX. The arrangement: method as in ref 1 (a number printed in a supplementary file, which may have a reference list of its own: not looked up in the article's list). Conditions: Rabbit, cited from earlier work.
For the next series, the target named is hERG (Homo sapiens, UniProt Q12809). Nature of the series: hERG IC50 of Table 1 / Table S2 (method not assigned). Format: cell-based. Conditions: human; n=4 assays. Background: Block of hERG is tested as a sign of cardiac risk.
The target of another series is T2, MAO A (Homo sapiens, UniProt P21397).
T2 sequence (P21397 1-527): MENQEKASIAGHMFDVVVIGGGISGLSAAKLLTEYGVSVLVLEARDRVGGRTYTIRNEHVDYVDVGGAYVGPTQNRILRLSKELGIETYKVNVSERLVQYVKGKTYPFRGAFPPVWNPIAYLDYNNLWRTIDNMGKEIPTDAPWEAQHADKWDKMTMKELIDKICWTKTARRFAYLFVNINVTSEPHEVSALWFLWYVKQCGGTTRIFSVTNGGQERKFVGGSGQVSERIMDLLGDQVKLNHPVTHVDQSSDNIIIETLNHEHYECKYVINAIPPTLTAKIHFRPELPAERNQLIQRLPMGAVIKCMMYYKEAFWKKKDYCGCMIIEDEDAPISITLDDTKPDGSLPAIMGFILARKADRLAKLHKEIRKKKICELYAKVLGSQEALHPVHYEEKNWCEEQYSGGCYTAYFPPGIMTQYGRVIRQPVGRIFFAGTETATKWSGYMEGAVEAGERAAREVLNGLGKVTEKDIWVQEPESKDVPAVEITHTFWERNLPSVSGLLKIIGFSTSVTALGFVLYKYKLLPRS
The series can be described thus: MAO A inhibition (Table S2). The format is biochemical. The settings on record: 10 μM.

For the next series, the target named is T3, MAO B (Homo sapiens, UniProt P27338).
T3 sequence (P27338 1-520): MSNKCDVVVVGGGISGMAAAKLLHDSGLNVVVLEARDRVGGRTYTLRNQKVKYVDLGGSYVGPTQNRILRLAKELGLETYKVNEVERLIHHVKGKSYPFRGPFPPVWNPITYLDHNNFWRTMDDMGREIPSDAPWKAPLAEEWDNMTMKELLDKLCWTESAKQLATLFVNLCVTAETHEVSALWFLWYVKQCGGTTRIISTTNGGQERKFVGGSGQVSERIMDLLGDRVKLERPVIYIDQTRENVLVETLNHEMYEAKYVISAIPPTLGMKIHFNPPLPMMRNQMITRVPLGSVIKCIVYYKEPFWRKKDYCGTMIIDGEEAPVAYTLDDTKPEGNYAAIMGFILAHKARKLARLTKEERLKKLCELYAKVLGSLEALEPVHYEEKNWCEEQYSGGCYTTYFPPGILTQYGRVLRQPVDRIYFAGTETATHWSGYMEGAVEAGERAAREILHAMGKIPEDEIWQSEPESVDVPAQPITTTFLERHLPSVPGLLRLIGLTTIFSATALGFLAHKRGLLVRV
The series can be described thus: MAO B inhibition (Table S2). The format is biochemical. Conditions: 10 μM.

Series [4] has as its system NCX. The arrangement: method as in ref 4 (a number printed in a supplementary file, which may have a reference list of its own: not looked up in the article's list). Conditions: CCL39 fibroblast, cited from earlier work.
The subject of series [5] is NCX. Further details: method as in ref 9 (a number printed in a supplementary file, which may have a reference list of its own: not looked up in the article's list). The settings on record: SH-SY5Y neuron, cited from earlier work.
For another series, the system named is L-Type Ca2+ Channel. Conditions: Table S2; cited from earlier work.

Sequence of hERG (Q12809 whole entry): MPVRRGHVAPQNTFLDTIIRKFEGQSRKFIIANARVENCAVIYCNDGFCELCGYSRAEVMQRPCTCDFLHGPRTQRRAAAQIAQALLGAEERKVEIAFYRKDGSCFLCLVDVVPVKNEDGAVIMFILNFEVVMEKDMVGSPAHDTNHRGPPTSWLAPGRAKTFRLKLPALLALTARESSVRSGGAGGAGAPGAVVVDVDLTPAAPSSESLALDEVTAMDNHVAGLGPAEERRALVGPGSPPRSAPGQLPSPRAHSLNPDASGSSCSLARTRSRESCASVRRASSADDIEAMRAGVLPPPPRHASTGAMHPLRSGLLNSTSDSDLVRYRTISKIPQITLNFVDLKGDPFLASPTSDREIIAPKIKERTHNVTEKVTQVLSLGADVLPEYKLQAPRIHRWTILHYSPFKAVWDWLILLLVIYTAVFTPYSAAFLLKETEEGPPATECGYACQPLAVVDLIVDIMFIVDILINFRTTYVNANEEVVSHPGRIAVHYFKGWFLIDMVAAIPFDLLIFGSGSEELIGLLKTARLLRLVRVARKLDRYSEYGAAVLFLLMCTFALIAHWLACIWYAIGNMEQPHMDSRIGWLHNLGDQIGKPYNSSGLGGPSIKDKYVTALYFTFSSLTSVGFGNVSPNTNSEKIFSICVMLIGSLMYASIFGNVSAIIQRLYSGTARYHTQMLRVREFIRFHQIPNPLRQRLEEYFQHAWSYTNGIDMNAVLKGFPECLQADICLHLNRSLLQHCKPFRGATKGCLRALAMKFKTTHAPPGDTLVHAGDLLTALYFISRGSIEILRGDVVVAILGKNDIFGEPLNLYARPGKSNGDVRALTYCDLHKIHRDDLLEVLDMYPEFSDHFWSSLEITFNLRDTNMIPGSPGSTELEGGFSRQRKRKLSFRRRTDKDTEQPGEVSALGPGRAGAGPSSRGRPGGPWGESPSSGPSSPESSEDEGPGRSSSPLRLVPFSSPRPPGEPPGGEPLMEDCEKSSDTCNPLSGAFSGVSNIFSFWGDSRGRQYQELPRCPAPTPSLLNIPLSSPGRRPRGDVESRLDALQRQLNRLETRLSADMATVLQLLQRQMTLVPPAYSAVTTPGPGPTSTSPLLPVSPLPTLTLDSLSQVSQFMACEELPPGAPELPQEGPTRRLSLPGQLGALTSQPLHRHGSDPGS

As for `CN(CCOc1ccc(NS(C)(=O)=O)cc1)CCc1ccc(NS(C)(=O)=O)cc1` [dofetilide, reference compound], in series [1], the “STV and triangulation (pro‐arrhythmia markers)” value is recorded as “increased”.

As usually defined, the IC50 is the midpoint of a concentration-inhibition curve. Turning to `N=C(N)SCCc1ccc(OCc2ccc([N+](=O)[O-])cc2)cc1` [KB-R7943], the IC50 against human NCX 1.1 is 3.79 µM; at hNCX1 (HEK293, forward mode, Table S2, read-out: hNCX1-HEK IC50), 3.59 µM; in the series on NCX [2] (read-out: IC50 NCX forward), 120 nM; with NCX [2] (read-out: IC50 NCX reverse) it was 61 nM; in the series on NCX [3] (read-out: IC50 NCX forward) it was 243 nM; with NCX [3] (read-out: IC50 NCX reverse), 309 nM. Besides, the Solubility class result in the series “Solubility” is “Moderate (moderate solubility between 10-100 µg/ml)”.

In general, solubility refers to the concentration that dissolves in the medium under given conditions. One may read the inhibition as the relative decrease from the control value, in per cent. High values mean strong suppression, low ones little suppression. For the molecule `CCOC(=O)C1CSC(Cc2ccc(OCc3ccc([N+](=O)[O-])cc3)cc2)N1` (stereo not shown) [SN‐6, 2‐[4‐(4‐nitrobenzyloxy)benzyl]thiazolidine‐4‐carboxylic acid ethyl ester], the IC50 was 16 µM against human NCX 1.1; above 100 µM on hNCX1 (HEK293, text, read-out: IC50 hNCX1 (forward mode)); 102 µM against hERG; above 30 µM in the series on NCX [4] (read-out: IC50 NCX forward); 29 µM in the series with NCX [4] (read-out: IC50 NCX reverse). Besides, the solubility in the series “Solubility” (phosphate buffer, pH 7.4, aqueous buffer, read-out: Solubility class) lay in the range of 10 to 100 µg/mL (≈ 24.8 to 248 µM). Further, the inhibition at 10 µM at MAO A worked out at 38%; against MAO B, 80%.

Consider `Nc1cccc(CNC(=O)c2ccc(Oc3ccc(OCc4cccc(F)c4)cc3)nc2)c1` [YM-244769], for which the concentration for half-maximal inhibition (IC50) was 68 nM in the series on NCX [5] (read-out: IC50 NCX forward), 96 nM in the series on NCX [5] (read-out: IC50 NCX reverse) and above 3000 nM with L-Type Ca2+ Channel.
